Source: patent US8921421B2, “Inhibitors of dimethylarginine dimethylaminohydrolase” (Christian-Albrechts-Universitaet Zu Kiel, priority 2008, dated 2014)

Legend:
Format in all cases: biochemical
hDDAH-1 [1] = target: T1, hDDAH-1 (Homo sapiens (Human), UniProt O94760); experiment: Determination of the IC50 value (plate-reader assay); details: NMMA 300 μM, 4 μg recombinant hDDAH-1, 30 min 37° C.; determined at least twice
Protocol: The samples for the plate-reader assay were incubated directly on a 96-well microtiter plate. An incubation mixture consisted of 150 μl of 50 mM potassium phosphate buffer pH 7.4 with NMMA in a final concentration of 300 μM. The inhibitor was added in five different concentrations and the reaction was started by adding 4 μg of recombinant hDDAH-1. In addition, two mixtures without added inhibitor were incubated. The plate was closed with a lid and incubated for 30 minutes on a plate incubator (shaker DTS-4, LTF-Labortechnik GmbH, Wasserburg, Germany) at 37° C. The reactions were stopped using 200 μl of the Colder reagent and the citrulline that had formed was derivatised (see derivatisation for plate-reader assay). The IC50 value was then calculated by means of SigmaPlot 8.0 (SPSS Chicago, USA). Derivatisation was carried out on particularly heat-stable 96-well microtiter plates. 200 μl of the Colder reagent was added to the samples (150 μl) and to prevent evaporation, the plate was closed with a heat-stable adhesive film (Nunc, Wiesbaden, Germany). Colour formation then took place in the drying oven at 95° C. for 15-20 minutes. Before photometric measurements were taken, there was a wait until the plate had reached room temperature and then the colour intensity at 540.5 nm (Carry 50 microplate reader, Varian, Darmstadt, Germany) was measured.

hDDAH-1 [2] = target: T1, hDDAH-1; experiment: In vitro hDDAH-1 assay (HPLC), inhibition at 1 mM inhibitor; details: inhibitor 1 mM, NMMA 200 μM, 2 μg hDDAH-1, 30 min 37° C.; MV±SD of at least four incubations
Protocol: This assay was used to determine the inhibiting effect of the inhibitors in a concentration of 1 mM. A standard incubation mixture consisted of 75 μl of 50 mM potassium phosphate buffer pH 7.4 and contained NMMA in a concentration of 200 μM. The inhibitors were used in final concentrations of 1 mM. By adding 2 μg of hDDAH-1, the reaction was started and the samples were incubated for 30 minutes at 37° C. in, a shaking water bath. The reaction was then stopped by adding 75 μl of acetonitrile, the samples were shaken for 5′ minutes and centrifuged (12,000 g, 5 min). The supernatant was added to the HPLC.
In addition, three incubations without added inhibitor were carried out in each case and worked up as specified above. The L-citrulline concentration detected in the samples was set at 100% and the amount of L-citrulline formed in the samples with added inhibitor was referred to this value.
For analysing the samples of the in vitro hDDAH-1 assay (HPLC), o-PA pre-column derivatisation was used with subsequent fluorescence detection of the amino acids. • HPLC plant: Waters Autosampler 717plus, Waters 600 Controller, Waters 600 Pump, Waters Fluorescence Detector 470 and EZChrom Elite Client/Server Measurement and evaluation software (version 2.8.3) • Stationary phase: NovaPak RP-18 column 4 μm (4×150 mm, VDS Optilab) pre-column: Phenomenex C18 (4×3.0 mm) • Temperature: 30° C.
• Detection: Fluorescence: λex: 338 nm; 425 nm. • Injection volume: 10 μl • Derivat. reagent: 50 mg o-PA dissolved in 1 ml of methanol • +9 ml 0.2 M of potassium borate buffer pH 9.4 • +53 μl 2-mercaptoethanol • Derivatisation: The auto sampler was programmed such that 10 μl of the sample were mixed with 14 μl of the derivatisation reagent and could react for 3 minutes at room, temperature prior to injection. Retention times: • L-citrulline 12.2±0.3 min • NMMA 15.8±0.4 min • Methylamine 23.4±0.1 min

hDDAH-1 [3] = target: T1, hDDAH-1; experiment: Determination of the Ki value (plate-reader assay); details: five NMMA concentrations (50-1250 μM), recombinant hDDAH-1; determined at least twice
Protocol: The Ki value was determined as described for the IC50 value, with the difference that five different NMMA concentrations (50, 100, 300, 750 and 1250 μM) were used. The incubations were carried out such that each NMMA concentration was in each case incubated twice with each of the five inhibitor concentrations. On top of this, incubations using the different NMMA concentrations were carried out without added inhibitor.
For each inhibitor concentration, using SigmaPlot 8.0 (SPSS Inc., Chicago, USA) the respective apparent Km value and Vmax were determined. Via secondary plotting of the inhibitor concentrations versus Km/Vmax the Ki value was determined by extrapolation of the least-squares lines onto the abscissa.
Derivatisation was carried out on particularly heat-stable 96-well microtiter plates. 200 μl of the Colder reagent was added to the samples (150 μl) and to prevent evaporation, the plate was closed with a heat-stable adhesive film (Nunc, Wiesbaden, Germany). Colour formation then took place in the drying oven at 95° C. for 15-20 minutes. Before photometric measurements were taken, there was a wait until the plate had reached room temperature and then the colour intensity at 540.5 nm (Carry 50 microplate reader, Varian, Darmstadt, Germany) was measured. Measurement took place during 20 minutes since the reaction product is not stable (Knipp and Vasak 2000).

T1 sequence (O94760 whole entry): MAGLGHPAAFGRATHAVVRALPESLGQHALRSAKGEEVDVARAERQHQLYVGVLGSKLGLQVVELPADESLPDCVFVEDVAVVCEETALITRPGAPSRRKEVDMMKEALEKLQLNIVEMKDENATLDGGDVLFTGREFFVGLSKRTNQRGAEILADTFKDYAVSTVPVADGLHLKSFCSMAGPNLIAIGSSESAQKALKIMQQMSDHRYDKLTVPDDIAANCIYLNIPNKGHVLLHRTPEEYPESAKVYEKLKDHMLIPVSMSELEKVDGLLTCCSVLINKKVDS

Structure (SMILES) | IC50 (hDDAH-1 [1]) [µM] | inhibition at 1000 µM (hDDAH-1 [2]) [%] | Ki (hDDAH-1 [3]) [µM]
COCC/N=C(/N)NCCCCN [Substance 3, N-(4-aminobutyl)-N′-(2-methoxyethyl)guanidine bis(trifluoracetate)] | 70 ± 16 | 80 ± 5 | 18 ± 6
C=CCC(=N)NCCCCN [Substance 5, N-(4′-aminobutyl)but-3-enamidine bis(trifluoracetate)] |  | 40 ± 6 | 
COCCNC(=N)NCCC[C@H](N)C(=O)O [Substance L-257, N^ω-(2-methoxyethyl)-L-arginine, reference compound] |  | 89 ± 2 | 
